Reference: patent publication EP2797914B1, “NIFURATEL SULFOXIDE FOR USE IN THE TREATMENT OF BACTERIAL INFECTIONS” (Polichem SA, priority 2011, dated 2013)

Legend:
Type in all cases: cell-based
[1] = test system: Lactobacillus iners ATCC 55195; experiment: MIC by broth microdilution method (CLSI M07-A8 / M11-A7); conditions: broth microdilution; Lactobacillus iners ATCC 55195
Procedure: The in vitro activity of nifuratel sulfoxide racemate, R-nifuratel sulfoxide and S-nifuratel sulfoxide was tested on a panel of bacteria, which included both Gram positive and Gram negative bacteria. The minimum inhibitory concentrations (MICs) of the compounds were determined by the broth microdilution method or by the agar dilution method, according to the National Committee for Clinical Laboratory Standards (CLSI) reference methods […]-A8 and M11-A7.

[2] = test system: Escherichia coli ATCC 11775; experiment: MIC by broth microdilution method (CLSI M07-A8 / M11-A7); efficiency coefficient derived; conditions: broth microdilution; Escherichia coli ATCC 11775
Procedure: (§1) The in vitro activity of nifuratel sulfoxide racemate, R-nifuratel sulfoxide and S-nifuratel sulfoxide was tested on a panel of bacteria, which included both Gram positive and Gram negative bacteria.
(§2) The minimum inhibitory concentrations (MICs) of the compounds were determined by the broth microdilution method or by the agar dilution method, according to the National Committee for Clinical Laboratory Standards (CLSI) reference methods M07-A8 and M11-A7.
(§3) The efficiency coefficient (EC) of nifuratel sulfoxide vs. nifuratel was calculated for each tested strain as follows: EC = relative oral bioavailability*[…] [formula]
(§4) Where: • nifS = nifuratel sulfoxide • nif = nifuratel • EC = 1 is indicative of equivalent efficiency between nifuratel sulfoxide and nifuratel. • EC < 1 is indicative of a lower efficiency of nifuratel sulfoxide vs. nifuratel • EC > 1 is indicative of a higher efficiency of nifS vs. nif

[3] = test system: Klebsiella pneumonia ATCC 10031; experiment: as above; conditions: broth microdilution; Klebsiella pneumonia ATCC 10031
Procedure: as §1, §2, §3, §4

[4] = test system: Micrococcus pyogenes ATCC 11631; experiment: as above; conditions: broth microdilution; Micrococcus pyogenes ATCC 11631
Procedure: as §1, §2, §3, §4

[5] = test system: Neisseria gonorrhoeae ATCC 19424; experiment: as above; conditions: broth microdilution; Neisseria gonorrhoeae ATCC 19424
Procedure: as §1, §2, §3, §4

[6] = test system: Proteus mirabilis ATCC 14153; experiment: as above; conditions: broth microdilution; Proteus mirabilis ATCC 14153
Procedure: as §1, §2, §3, §4

[7] = test system: Salmonella paratyphi B ATCC 10719; experiment: as above
Procedure: as §1, §2, §3, §4

[8] = test system: Salmonella typhimurium ATCC 14028; experiment: as above; conditions: broth microdilution; Salmonella typhimurium ATCC 14028
Procedure: as §1, §2, §3, §4

[9] = test system: Shigella sonnei ATCC 11060; experiment: as above
Procedure: as §1, §2, §3, §4

[10] = test system: Staphylococcus aureus (MRSA); experiment: as above; conditions: broth microdilution; Staphylococcus aureus (MRSA)
Procedure: as §1, §2, §3, §4

Atopobium vaginae = experiment: MIC by agar dilution method (CLSI M07-A8 / M11-A7); efficiency coefficient derived; conditions: for MIC: agar dilution; for in vitro antimicrobial activity (in words): tested Atopobium vaginae strains
Procedure: as §1, §2, §3, §4

Gardnerella vaginalis = experiment: as above; conditions: for MIC: agar dilution; for in vitro antimicrobial activity (in words): tested Gardnerella vaginalis strains
Procedure: as §1, §2, §3, §4

**Q.** What does the source list for `C[S+]([O-])CC1CN(N=Cc2ccc([N+](=O)[O-])o2)C(=O)O1` (mixture of isomers) [R-Nifuratel sulfoxide, (R)-nifuratel sulfoxide]?
**A.** MIC [1]: 16 µg/mL; MIC [2]: 16 µg/mL; MIC [3]: 16 µg/mL; MIC [4]: 32 µg/mL; MIC [5]: 2 µg/mL; MIC [6]: 8 µg/mL; MIC [7]: 16 µg/mL; MIC [8]: 16 µg/mL; MIC [9]: 16 µg/mL; MIC [10]: 16 µg/mL; MIC (Atopobium vaginae; strain CCUG 38953): 1 µg/mL; MIC (Atopobium vaginae; strain CCUG 39382): 1 µg/mL; MIC (Atopobium vaginae; strain CCUG 42099): 1 µg/mL; MIC (Atopobium vaginae; strain CCUG 43049): 4 µg/mL; MIC (Atopobium vaginae; strain CCUG 44061): 1 µg/mL; MIC (Atopobium vaginae; strain CCUG 44156): 2 µg/mL; MIC (Atopobium vaginae; strain CCUG 48515): 2 µg/mL; MIC (Atopobium vaginae; strain CCUG 55226): 2 µg/mL; MIC (Atopobium vaginae; strain CCUG 55227): 1 µg/mL; in vitro antimicrobial activity (in words) (Atopobium vaginae): good activity; MIC (Gardnerella vaginalis; strain ATCC 14018): 8 µg/mL; MIC (Gardnerella vaginalis; strain C2): 32 µg/mL; MIC (Gardnerella vaginalis; strain D2): 64 µg/mL; MIC (Gardnerella vaginalis; strain E2): 64 µg/mL; MIC (Gardnerella vaginalis; strain G2): 64 µg/mL; MIC (Gardnerella vaginalis; strain H2): 16 µg/mL; MIC (Gardnerella vaginalis; strain J2): 32 µg/mL; MIC (Gardnerella vaginalis; strain K2): 64 µg/mL; in vitro antimicrobial activity (in words) (Gardnerella vaginalis): good activity

**Q.** With `C[S+]([O-])CC1CN(N=Cc2ccc([N+](=O)[O-])o2)C(=O)O1` (mixture of isomers) [S-Nifuratel sulfoxide, (S)-nifuratel sulfoxide] as the molecule, how does the MIC [1] read?
**A.** 32 µg/mL

**Q.** What about the MIC [2] of the same molecule?
**A.** 16 µg/mL

**Q.** And the MIC [3]?
**A.** 16 µg/mL

**Q.** And the MIC [4]?
**A.** 64 µg/mL

**Q.** What about the MIC [5] of the same molecule?
**A.** 2 µg/mL

**Q.** What about the MIC [6] of the same molecule?
**A.** 4 µg/mL

**Q.** What about the MIC [7] of the same molecule?
**A.** 8 µg/mL

**Q.** And the MIC [8]?
**A.** 16 µg/mL

**Q.** And the MIC [9]?
**A.** 16 µg/mL

**Q.** What about the MIC [10] of the same molecule?
**A.** 16 µg/mL

**Q.** And the MIC (Atopobium vaginae; strain CCUG 38953)?
**A.** 2 µg/mL

**Q.** What about the MIC (Atopobium vaginae; strain CCUG 39382) of the same molecule?
**A.** 2 µg/mL

**Q.** What about the MIC (Atopobium vaginae; strain CCUG 42099) of the same molecule?
**A.** 16 µg/mL

**Q.** And the MIC (Atopobium vaginae; strain CCUG 43049)?
**A.** 8 µg/mL

**Q.** And the MIC (Atopobium vaginae; strain CCUG 44061)?
**A.** 1 µg/mL

**Q.** And the MIC (Atopobium vaginae; strain CCUG 44156)?
**A.** 2 µg/mL

**Q.** What about the MIC (Atopobium vaginae; strain CCUG 48515) of the same molecule?
**A.** 2 µg/mL

**Q.** What about the MIC (Atopobium vaginae; strain CCUG 55226) of the same molecule?
**A.** 8 µg/mL

**Q.** And the MIC (Atopobium vaginae; strain CCUG 55227)?
**A.** 4 µg/mL

**Q.** What about the “in vitro antimicrobial activity (in words)” value (Atopobium vaginae) of the same molecule?
**A.** good activity

**Q.** What about the MIC (Gardnerella vaginalis; strain ATCC 14018) of the same molecule?
**A.** 16 µg/mL

**Q.** And the MIC (Gardnerella vaginalis; strain C2)?
**A.** 16 µg/mL

**Q.** What about the MIC (Gardnerella vaginalis; strain D2) of the same molecule?
**A.** 16 µg/mL

**Q.** And the MIC (Gardnerella vaginalis; strain E2)?
**A.** 32 µg/mL

**Q.** What about the MIC (Gardnerella vaginalis; strain G2) of the same molecule?
**A.** 16 µg/mL

**Q.** What about the MIC (Gardnerella vaginalis; strain H2) of the same molecule?
**A.** 8 µg/mL

**Q.** What about the MIC (Gardnerella vaginalis; strain J2) of the same molecule?
**A.** 16 µg/mL

**Q.** What about the MIC (Gardnerella vaginalis; strain K2) of the same molecule?
**A.** 32 µg/mL

**Q.** And the “in vitro antimicrobial activity (in words)” value (Gardnerella vaginalis)?
**A.** good activity
